Numbers after ± are expanded uncertainties.
Key:
[1] = xn = mol fraction of the nth substance listed; settings: 101 kPa, Liquid
[2] = refractive index (Na D-line) (dimensionless); xn = mol fraction of the nth substance listed; settings: 101 kPa, Liquid

C1CCCCC1 [cyclohexane] + CCC(C)=O
x1 = 1
Settings | refractive index, 293.15 K | refractive index, 298.15 K | refractive index, 303.15 K | speed of sound, 293.15 K [m/s] | speed of sound, 298.15 K [m/s] | speed of sound, 303.15 K [m/s]
[1], Sing-around technique in a fixed-path interferometer | – | – | – | 1279 ± 2 | 1256 ± 2 | 1219 ± 2
[2], Standard Abbe refractometry | 1.42633 ± 0.00031 | 1.42354 ± 0.00031 | 1.42073 ± 0.00031 | – | – | –

[1], x1 = 1
Settings | mass density [kg/m3]
293.15 K | 778.4 ± 0.5
298.15 K | 773.8 ± 0.5
303.15 K | 769 ± 0.5

CCCCCCCC[n+]1ccn(C)c1.F[P-](F)(F)(F)(F)F [1-octyl-3-methylimidazolium hexafluorophosphate] + CCC(C)=O
Settings | mass density, 293.15 K [kg/m3] | mass density, 298.15 K [kg/m3] | mass density, 303.15 K [kg/m3] | refractive index, 293.15 K | refractive index, 298.15 K | refractive index, 303.15 K | speed of sound, 293.15 K [m/s] | speed of sound, 298.15 K [m/s] | speed of sound, 303.15 K [m/s]
[1], x1 = 0.0475 | 869.8 ± 0.6 | 864.3 ± 0.6 | 859.6 ± 0.7 | – | – | – | 1243 ± 8 | 1224 ± 8 | 1195 ± 7
[1], x1 = 0.0972 | 923.7 ± 0.6 | 918.9 ± 0.6 | 914.1 ± 0.6 | – | – | – | 1268 ± 8 | 1249 ± 8 | 1229 ± 8
[1], x1 = 0.1918 | 1002 ± 0.5 | 997.6 ± 0.5 | 993.2 ± 0.5 | – | – | – | 1303 ± 8 | 1286 ± 8 | 1269 ± 8
[1], x1 = 0.2947 | 1063.1 ± 0.6 | 1058.8 ± 0.6 | 1054.6 ± 0.6 | – | – | – | 1331 ± 8 | 1315 ± 8 | 1300 ± 8
[1], x1 = 0.3949 | 1107.9 ± 0.7 | 1103.7 ± 0.7 | 1099.5 ± 0.7 | – | – | – | 1352 ± 8 | 1337 ± 8 | 1323 ± 8
[1], x1 = 0.4983 | 1143.6 ± 0.7 | 1139.4 ± 0.7 | 1135.3 ± 0.7 | – | – | – | 1368 ± 8 | 1354 ± 8 | 1340 ± 8
[1], x1 = 0.5752 | 1164.9 ± 0.8 | 1160.9 ± 0.8 | 1156.9 ± 0.8 | – | – | – | 1378 ± 8 | 1364 ± 8 | 1351 ± 8
[1], x1 = 0.6815 | 1189.5 ± 0.9 | 1185.5 ± 0.9 | 1181.5 ± 0.8 | – | – | – | 1389 ± 8 | 1376 ± 8 | 1363 ± 8
[1], x1 = 0.7683 | 1205.8 ± 0.9 | 1202 ± 0.9 | 1198.3 ± 0.9 | – | – | – | 1399 ± 8 | 1386 ± 8 | 1372 ± 8
[1], x1 = 0.8315 | 1216.4 ± 0.9 | 1212.8 ± 0.9 | 1209.1 ± 0.9 | – | – | – | 1406 ± 8 | 1392 ± 8 | 1379 ± 8
[1], x1 = 0.9315 | 1230.9 ± 1 | 1227.5 ± 1 | 1223.9 ± 1 | – | – | – | 1425 ± 9 | 1410 ± 8 | 1395 ± 8
[1], x1 = 1 | 1239.6 ± 1.1 | 1235.7 ± 1 | 1231.9 ± 1 | – | – | – | 1424 ± 9 | 1408 ± 8 | 1393 ± 8
[2], x1 = 0.0475 | – | – | – | 1.38881 ± 0.0012 | 1.38663 ± 0.0012 | 1.38505 ± 0.0012 | – | – | –
[2], x1 = 0.0972 | – | – | – | 1.39567 ± 0.0012 | 1.39445 ± 0.0012 | 1.39284 ± 0.0012 | – | – | –
[2], x1 = 0.1918 | – | – | – | 1.40468 ± 0.0013 | 1.40289 ± 0.0013 | 1.40124 ± 0.0013 | – | – | –
[2], x1 = 0.2947 | – | – | – | 1.41058 ± 0.0013 | 1.40877 ± 0.0013 | 1.40709 ± 0.0013 | – | – | –
[2], x1 = 0.3949 | – | – | – | 1.41468 ± 0.0013 | 1.41302 ± 0.0013 | 1.41133 ± 0.0013 | – | – | –
[2], x1 = 0.4983 | – | – | – | 1.41774 ± 0.0013 | 1.41614 ± 0.0013 | 1.41466 ± 0.0013 | – | – | –
[2], x1 = 0.5752 | – | – | – | 1.41934 ± 0.0013 | 1.41779 ± 0.0013 | 1.41645 ± 0.0013 | – | – | –
[2], x1 = 0.6815 | – | – | – | 1.42126 ± 0.0013 | 1.41979 ± 0.0013 | 1.41825 ± 0.0013 | – | – | –
[2], x1 = 0.7683 | – | – | – | 1.42239 ± 0.0013 | 1.42095 ± 0.0013 | 1.41949 ± 0.0013 | – | – | –
[2], x1 = 0.8315 | – | – | – | 1.42355 ± 0.0013 | 1.42198 ± 0.0013 | 1.42051 ± 0.0013 | – | – | –
[2], x1 = 0.9315 | – | – | – | 1.42474 ± 0.0013 | 1.42337 ± 0.0013 | 1.42199 ± 0.0013 | – | – | –
[2], x1 = 1 | – | – | – | 1.4244 ± 0.0013 | 1.42302 ± 0.0013 | 1.42165 ± 0.0013 | – | – | –

CCC(C)=O [butanone] + CCCCCCCC[n+]1ccn(C)c1.F[P-](F)(F)(F)(F)F
x2 = 0
Settings | mass density, 293.15 K [kg/m3] | mass density, 298.15 K [kg/m3] | mass density, 303.15 K [kg/m3] | refractive index, 293.15 K | refractive index, 298.15 K | refractive index, 303.15 K | speed of sound, 293.15 K [m/s] | speed of sound, 298.15 K [m/s] | speed of sound, 303.15 K [m/s]
[1] | 805.6 ± 0.7 | 799.7 ± 0.7 | 794.9 ± 0.8 | – | – | – | 1212 ± 8 | 1192 ± 7 | 1163 ± 7
[2] | – | – | – | 1.37879 ± 0.0012 | 1.37618 ± 0.0012 | 1.37355 ± 0.0012 | – | – | –

Reference: the NIST ThermoML archive (doi:10.1016/j.jct.2008.03.011)
